In patent publication US8129396B2, “2-[1H-benzimidazol-2(3H)-ylidene]-2-(pyrimidin-2-yl)acetamides and 2-[benzothiazol-2(3H)-ylidene]-2-(pyrimidin-2-yl)acetamides as kinase inhibitors” (Telik, Inc., priority 2008, dated 2012):
Read-outs that look alike come from different tables or passages of the source.

What was measured:
Aurora A kinase = target: T1, Aurora A kinase (Homo sapiens, UniProt O14965); test: Aurora A kinase assay (IMAP fluorescence polarization); type: biochemical; conditions: 10 μM ATP; rounded to 1 significant figure; read-out: Aur-A IC50
T1 construct: purchased Upstate Biotech
T1 sequence (O14965 1-403): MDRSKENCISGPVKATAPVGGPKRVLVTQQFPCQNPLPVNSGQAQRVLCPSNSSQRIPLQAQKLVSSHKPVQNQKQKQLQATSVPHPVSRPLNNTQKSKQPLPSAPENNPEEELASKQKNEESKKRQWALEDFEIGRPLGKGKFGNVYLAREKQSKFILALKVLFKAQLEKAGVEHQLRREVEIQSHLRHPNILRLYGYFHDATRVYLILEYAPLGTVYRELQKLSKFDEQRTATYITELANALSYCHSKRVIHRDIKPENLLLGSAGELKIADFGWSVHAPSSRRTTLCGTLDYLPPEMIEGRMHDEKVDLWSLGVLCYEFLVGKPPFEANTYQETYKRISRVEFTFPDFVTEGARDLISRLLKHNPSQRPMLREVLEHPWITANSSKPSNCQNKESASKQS
How it was run: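 Compounds (eight 3-fold dilutions, 2.5% DMSO final) were preincubated 5 min at room temperature with Aurora A kinase in buffer with 1 mM DTT. Reaction with 100 nM fluorescein-PKAtide and 10 μM ATP ran 45 min at room temperature, then was stopped with IMAP binding reagent; fluorescence polarization was read after 30 min.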

Aurora B kinase = target: T2, Aurora B kinase (Homo sapiens, UniProt Q96GD4); test: Aurora B kinase assay (IMAP fluorescence polarization); type: biochemical; conditions: 10 μM ATP; rounded to 1 significant figure; read-out: Aur-B IC50
T2 construct: purchased BPS Bioscience
T2 sequence (Q96GD4 whole entry): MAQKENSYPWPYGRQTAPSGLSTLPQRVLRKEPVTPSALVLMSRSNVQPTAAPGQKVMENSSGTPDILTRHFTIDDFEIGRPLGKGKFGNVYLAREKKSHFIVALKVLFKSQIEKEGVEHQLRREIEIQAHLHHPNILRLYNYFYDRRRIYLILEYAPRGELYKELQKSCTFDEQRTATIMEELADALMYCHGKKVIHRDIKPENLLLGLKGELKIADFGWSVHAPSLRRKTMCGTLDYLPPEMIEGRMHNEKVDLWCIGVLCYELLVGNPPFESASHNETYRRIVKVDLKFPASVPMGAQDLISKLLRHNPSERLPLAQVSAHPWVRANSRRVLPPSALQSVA
How it was run: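 Reaction started with 100 nM fluorescein-labelled PKAtide and 10 μM ATP, run 45 min at room temperature, then stopped with IMAP binding reagent (1:400). After 30 min shaking at room temperature, fluorescence polarization read; run in duplicate with solvent control.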

VEGFR2 kinase = target: T3, VEGFR2 kinase (Homo sapiens, UniProt P35968); test: VEGFR2 kinase assay; type: biochemical; conditions: 6 μM ATP, 1 mM MnCl2; rounded to 1 significant figure
T3 construct: purchased Cell Signaling Technology
T3 sequence (P35968 20-1356): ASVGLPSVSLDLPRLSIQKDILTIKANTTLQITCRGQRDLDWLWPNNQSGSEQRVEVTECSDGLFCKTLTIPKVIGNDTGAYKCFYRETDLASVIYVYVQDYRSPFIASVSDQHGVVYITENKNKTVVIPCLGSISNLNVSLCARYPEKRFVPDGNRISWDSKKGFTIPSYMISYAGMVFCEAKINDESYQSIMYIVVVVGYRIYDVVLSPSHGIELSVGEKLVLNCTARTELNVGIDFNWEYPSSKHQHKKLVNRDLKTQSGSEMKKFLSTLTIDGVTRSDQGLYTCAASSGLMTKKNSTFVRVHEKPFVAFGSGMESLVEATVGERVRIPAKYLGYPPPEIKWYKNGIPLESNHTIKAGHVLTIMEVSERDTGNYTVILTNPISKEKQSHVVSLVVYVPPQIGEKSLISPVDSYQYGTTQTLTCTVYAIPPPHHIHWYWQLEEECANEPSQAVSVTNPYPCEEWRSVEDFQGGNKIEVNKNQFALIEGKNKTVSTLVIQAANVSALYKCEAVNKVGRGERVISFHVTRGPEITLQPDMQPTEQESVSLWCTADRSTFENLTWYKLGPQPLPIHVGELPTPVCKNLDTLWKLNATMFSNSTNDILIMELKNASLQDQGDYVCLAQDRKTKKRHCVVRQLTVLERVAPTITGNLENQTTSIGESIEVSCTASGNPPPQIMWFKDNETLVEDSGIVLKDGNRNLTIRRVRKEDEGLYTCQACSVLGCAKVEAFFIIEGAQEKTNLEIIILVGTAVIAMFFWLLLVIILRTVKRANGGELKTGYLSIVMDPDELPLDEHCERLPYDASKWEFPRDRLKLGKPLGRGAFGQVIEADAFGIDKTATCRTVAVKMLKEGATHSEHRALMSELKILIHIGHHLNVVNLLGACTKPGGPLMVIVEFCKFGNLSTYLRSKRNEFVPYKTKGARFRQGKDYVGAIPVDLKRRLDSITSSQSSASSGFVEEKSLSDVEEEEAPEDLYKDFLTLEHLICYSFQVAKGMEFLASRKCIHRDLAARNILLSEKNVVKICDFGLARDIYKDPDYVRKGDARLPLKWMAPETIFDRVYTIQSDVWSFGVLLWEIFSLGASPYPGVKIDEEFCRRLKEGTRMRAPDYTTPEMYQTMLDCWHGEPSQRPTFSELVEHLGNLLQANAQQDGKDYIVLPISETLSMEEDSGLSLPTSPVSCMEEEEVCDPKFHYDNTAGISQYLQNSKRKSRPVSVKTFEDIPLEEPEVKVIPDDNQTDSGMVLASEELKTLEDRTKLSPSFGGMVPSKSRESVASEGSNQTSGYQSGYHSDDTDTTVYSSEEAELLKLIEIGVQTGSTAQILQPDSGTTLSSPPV
How it was run: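 VEGFR2 phosphorylates CSKtide with 6 μM ATP and 1 mM MnCl2 for 1 hr, otherwise following the Aurora A kinase protocol. Detection by IMAP fluorescence polarization, binding reagent diluted 1:1200 in 1:1 binding buffer A/B. Run in duplicate with solvent control.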

p-H3 in HCT116 cells = test: Histone phosphorylation (p-H3) assay; type: cell-based; conditions: Homo sapiens, read-out: p-H3 IC50
How it was run: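 HCT116 cells (2.5×10^4/well, attached overnight) treated 4 h with 8-point 3-fold compound dilutions at 0.5% DMSO. Lysates dot-blotted onto nitrocellulose and probed for p-H3 with β-actin on the same membrane, fluorescent secondary antibodies, Odyssey scan; duplicate wells.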

[1] = tested on: HCT116 (human colon carcinoma) cells; test: HCT116 cytotoxicity assay (CellTiter-Glo); type: cell-based; conditions: HCT-116, 72 h, read-out: HCT116 IC50
[2] = tested on: HL60 (human promyelocytic leukemia) cells; test: HL60 cytotoxicity assay (CellTiter-Glo); type: cell-based; conditions: HL-60, 72 h, read-out: HL60 IC50
Text: The cell lines HL60 (human promyelocytic leukemia) and HCT116 (human colon carcinoma) were obtained from the American Type Culture Collection, Manassas, Va., U.S.A., and HUVEC-2 (human umbilical vein endothelial cells) from BD Biosciences, Bedford, Mass., U.S.A. Aurora A kinase was obtained from Upstate Biotech, Billerica, Mass., U.S.A.; Aurora B kinase from BPS Bioscience, San Diego, Calif., U.S.A.; and VEGFR2 kinase from Cell Signaling Technology, Danvers, Mass., U.S.A. The IMAP FP Screening Express kit was obtained from Molecular Devices, Sunnyvale, Calif., U.S.A.; the CellTiter-Glo assay kit from Promega Corporation, Madison, Wis., U.S.A.; and the Cellular DNA Cytometric Analysis Reagent Kit and BrdU labeling and detection kit from Roche Diagnostics Corporation, Indianapolis, Ind., U.S.A. All products were used in accordance with manufacturer's directions. Kinase inhibition assays and the histone phosphorylation (p-H3) assay were conducted in duplicate, and the cytotoxicity and HUVEC proliferation assays were conducted in triplicate, in each case with solvent control.
Log-phase cells were trypsinized, collected by centrifugation, and resuspended in a small volume of fresh medium, and the density of viable cells was determined following Trypan Blue staining. Cells were diluted in fresh media (1×10^4 cells/mL for HL60 and 4×10^4 cells/mL for HCT116 cells), the test compounds (concentrations between 0.1 μM and 200 μM, dissolved in DMSO, 50 μL) added immediately after dilution to achieve a final DMSO concentration of 0.5%, then the suspensions added at 150 μL/well to 96-well plates, and incubated overnight to allow attachment in the case of adherent cells. The cells were cultured for three days (about three doubling times). The cells were then collected by centrifugation, and 100 μL of the culture supernatant was replaced by the CellTiter-Glo reagent. After incubation for 15 minutes at room temperature, the plate was read with a luminometer.

[3] = tested on: HUVEC-2 (human umbilical vein endothelial cells); test: HUVEC VEGF-dependent proliferation assay (BrdU); type: cell-based; conditions: read-out: HUVEC IC50
How it was run: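 HUVEC-2 cells on gelatin got serially diluted compound (0.5% DMSO final), and VEGF (25 ng/mL) was added 2 hr later. BrdU (10 μM) went in after one day, with labelling for another day. VEGF-dependent proliferation was read by BrdU detection, in triplicate.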

[4] = tested on: HL60 (human promyelocytic leukemia) xenograft; test: HL60 xenograft assay, oral administration; type: in vivo, athymic nu/nu mice
Experimental: Male athymic nu/nu mice, 6-8 weeks old (about 20 g), were implanted subcutaneously in the right fore flank with about 1×10^7 cells of the HL60 (human promyelocytic leukemia) line that had been grown in antibiotic-free medium for at least two passages. About 6 days after tumor implantation, when the tumor weight was about 50-250 mg, the mice were assigned to treatment groups. […] […] Tumor growth inhibition was measured 1-2 days after the last day of treatment.

[5] = HCT-116, HCT116 cells, 4 hr incubation
[6] = cytotoxicity, three days culture
[7] = VEGF (25 ng/mL)-dependent proliferation

SMILES	IC50 (Aurora A kinase)	IC50 (Aurora B kinase)	IC50 (VEGFR2 kinase)	IC50 (p-H3 in HCT116 cells; [5])	IC50 [1, 6]	IC50 [2, 6]	IC50 [3, 7]	inhibition of tumor growth compared to vehicle ([4]; 150 mg/Kg by gavage once/day on days 1-5 and 8-10, measured 1-2 days after last treatment)	tumor inhibition relative to vehicle ([4]; dissolved at 10 mg/mL in 0.1M sodium acetate pH5)	IC50 (p-H3 in HCT116 cells; HCT-116, 4 h)	IC50 [1]	IC50 [2]	IC50 [3]
NC(=O)/C(=C1\Nc2ccc(NC(=O)CCCN3CCOCC3)cc2N1)c1nccc(C(F)(F)F)n1 [Compound 85A]	5 nM	4 nM	20 nM	50 nM	300 nM	60 nM	20 nM	45%					
CCN(C(=O)C1CCN(C)CC1)c1ccc2c(c1)N/C(=C(/C(N)=O)c1nccc(C(F)(F)F)n1)N2 [Compound 141A]	4 nM	6 nM	40 nM	300 nM	900 nM	1000 nM	20 nM		49%				
CN(C)CC(=O)Nc1ccc2c(c1)N/C(=C(/C(N)=O)c1nccc(C(F)(F)F)n1)N2 [Compound 73A]	10 nM	5 nM	6 nM	100 nM	200 nM	200 nM	100 nM						
NC(=O)/C(=C1\Nc2cc(NC(=O)Cn3ccnc3)ccc2S1)c1nccc(C(F)(F)F)n1 [Compound 88A]	4 nM	8 nM	20 nM	60 nM	300 nM	100 nM	300 nM						
NC(=O)/C(=C1\Nc2ccc(S(=O)(=O)NCCCN3CCOCC3)cc2S1)c1nccc(C(F)(F)F)n1 [Compound 127A]	20 nM	6 nM	20 nM	200 nM	600 nM	500 nM	40 nM						
NC(=O)/C(=C1\Nc2ccc(C(=O)NCCN3CCOCC3)cc2N1)c1nccc(C(F)(F)F)n1 [Compound 53A]	3 nM	10 nM	20 nM	200 nM	300 nM	200 nM	30 nM						
NC(=O)/C(=C1\Nc2ccc(Cn3ccnc3)cc2N1)c1nccc(C(F)(F)F)n1 [Compound 90A]	4 nM	9 nM	4 nM	70 nM	200 nM	100 nM	90 nM						
CCN(CCCn1ccnc1)C(=O)c1ccc2c(c1)N/C(=C(/C(N)=O)c1nccc(C(F)(F)F)n1)N2 [Compound 48A]	10 nM	1 nM	10 nM	300 nM	600 nM	100 nM	40 nM						
NC(=O)/C(=C1\Nc2ccc(CC(=O)NCCCN3CCOCC3)cc2S1)c1nccc(C(F)(F)F)n1 [Compound 110A]	50 nM	20 nM	20 nM							200 nM	200 nM	800 nM	80 nM
NC(=O)C(=C1Nc2ccccc2N1)c1nccc(C(F)(F)F)n1 [Compound 1A, 2-[1H-benzimidazol-2(3H)-ylidene]-2-(4-trifluoromethylpyrimidin-2-yl)acetamide]	10 nM	5 nM	10 nM	200 nM	300 nM	1000 nM	70 nM						
NC(=O)/C(=C1\Nc2ccc(CCN3CCSCC3)cc2S1)c1nccc(C(F)(F)F)n1 [Compound 103A]	20 nM	10 nM	20 nM	2000 nM	2000 nM	100 nM	100 nM						
CC(C)(N)C(=O)Nc1ccc2c(c1)N/C(=C(/C(N)=O)c1nccc(C(F)(F)F)n1)N2 [Compound 81A]	6 nM	7 nM	9 nM	90 nM	300 nM	200 nM	80 nM						
NC(=O)/C(=C1\Nc2ccccc2S1)c1nccc(C(F)(F)F)n1 [Compound 2A]	30 nM	6 nM	90 nM	2000 nM	2000 nM	3000 nM	50 nM						
NC(=O)/C(=C1\Nc2ccc(NC(=O)CCN3CCOCC3)cc2N1)c1nccc(C(F)(F)F)n1 [Compound 84A]	7 nM	9 nM	20 nM	100 nM	200 nM	100 nM	60 nM						
NC(=O)/C(=C1\Nc2ccc(C(=O)NCCN3CCC(F)(F)CC3)cc2N1)c1nccc(C(F)(F)F)n1 [Compound 51A]	7 nM	6 nM	20 nM	300 nM	500 nM	50 nM	30 nM						
NC(=O)/C(=C1\Nc2ccc(C(=O)NCCCn3ccnc3)cc2N1)c1nccc(C(F)(F)F)n1 [Compound 45A]	20 nM	7 nM	20 nM	900 nM	500 nM	100 nM	10 nM						
NC(=O)/C(=C1\Nc2ccc(NC(=O)CCn3ccnc3)cc2N1)c1nccc(C(F)(F)F)n1 [Compound 87A]	8 nM	9 nM	10 nM	200 nM	200 nM	100 nM	90 nM						
NC(=O)/C(=C1\Nc2ccc(CCN3CCS(=O)(=O)CC3)cc2S1)c1nccc(C(F)(F)F)n1 [Compound 100A]	5 nM	9 nM	10 nM	300 nM	400 nM	90 nM	20 nM						
CCN(CCCN1CCOCC1)C(=O)c1ccc2c(c1)S/C(=C(/C(N)=O)c1nccc(C(F)(F)F)n1)N2 [Compound 42A]	10 nM	6 nM	20 nM	300 nM	500 nM	30 nM	40 nM						
